Results: ChEMBL document CHEMBL1124307, “Synthesis and beta-adrenergic antagonism of 2-(aryloxy)-1-(2-piperidyl)ethanols” (J Med Chem, 1988)
The source made the active and inactive calls. No cut-off for these calls is given here.

Species: Cavia porcellus
Assay: Selectivity of inhibition at beta-1 versus beta-2 adrenergic receptors, […]
Conditions: not given

Compound | Ratio
Cc1cccc(OC[C@@H](O)[C@@H]2CCCCN2)c1 (relative stereo) | 0.03
Cc1ccc(OC[C@@H](O)[C@H]2CCCCN2)cc1 (relative stereo) | 1.2
Cc1cccc(OCC(O)CNC(C)C)c1 (stereo not drawn) | 6.5
CN1CCCC[C@@H]1[C@H](O)COc1ccccc1 | 0.7
CC(C)N(C)CC(O)COc1ccccc1 (stereo not drawn) | 2.2
CC(C)NCC(O)COCCCc1ccccc1 (stereo not drawn) | 0.5
Cc1ccc(OCC(O)CNC(C)C)cc1 (stereo not drawn) | 1.8
CC(C)NCC(O)COc1ccc2ccccc2c1 (stereo not drawn) | 0.9
CN1CCCC[C@H]1[C@H](O)COc1ccccc1 (relative stereo) | 1.4
CC(C)NCC(O)COc1ccccc1 (stereo not drawn) | 8.1
CC(C)NCC(O)COCc1ccccc1 (stereo not drawn) | 1
Cc1ccc(OC[C@@H](O)[C@@H]2CCCCN2)cc1 (relative stereo) | 0.8

Next, values leading:

Ratio | Compound
0.7 | O[C@H](COc1ccccc1)[C@H]1CCCCN1 (relative stereo)
2 | O[C@H](COc1ccc2ccccc2c1)[C@H]1CCCCN1 (relative stereo)
0.4 | O[C@H](COCc1ccccc1)[C@H]1CCCCN1 (relative stereo)
2.5 | O[C@H](COCc1ccccc1)[C@@H]1CCCCN1 (relative stereo)
0.5 | Cc1cccc(OC[C@@H](O)[C@H]2CCCCN2)c1 (relative stereo)
0.7 | O[C@H](COc1cccc2ccccc12)[C@H]1CCCCN1 (relative stereo)
1.8 | O[C@H](COc1ccc2ccccc2c1)[C@@H]1CCCCN1 (relative stereo)
0.4 | O[C@H](COc1cccc2ccccc12)[C@@H]1CCCCN1 (relative stereo)
0.1 | O[C@H](COCCCc1ccccc1)[C@@H]1CCCCN1 (relative stereo)
1.7 | O[C@H](COc1ccccc1)[C@@H]1CCCCN1 (relative stereo)

Species: Cavia porcellus
Assay: Antagonism ([…] blocking activity) of isoprenaline-induced positive inotropic effect in guinea pig left atrium; Inactive
Assay type: functional
Conditions: Cardiac atrium

Compound | pA2
O[C@H](COCCCc1ccccc1)[C@H]1CCCCN1 (relative stereo) | inactive
